From PMC5064022, “KCNE1 induces fenestration in the Kv7.1/KCNE1 channel complex that allows for highly specific pharmacological targeting” (Nature Communications, 2016)

Legend:
Type in all cases: cell-based
A344C/KCNE1 = A344C/KCNE1 (Homo sapiens, UniProt P15382+P51787, A344C); assay: TEVC, mutant channel A344C/KCNE1 in oocytes; conditions: Kv7.1 A344C mutant with KCNE1
Description: (§1) Ala scanning was previously used to identify specific residues that form the putative binding sites for chromanol and benzodiazepine derivatives that are considered to be classical pore blockers of Kv7.1 channels. Here we applied Ala scanning to multiple segments of the Kv7.1 α-subunit to identify potential AC-1 interaction sites in the extended pore region of Kv7.1/KCNE1 channels (Fig. 3a). In cases where mutation to Ala precluded channel function, alternative residues were introduced. […] Instead, most of these crucial residues cluster around a ‘window' formed uniquely in the preopen–closed state model of the Kv7.1/KCNE1 channel[33] (Fig. 3c, magenta residues). […]
(§2) Template cDNAs (wildtype or mutant human Kv7.1 in pSGEM, wildtype human KCNE1 in pSP64) were linearized with a suitable restriction enzyme (Nhe I/pSGEM, Eco RI/pSP64). cRNA was synthesized from 1 μg linearized cDNA by in vitro transcription (mMessage mMachine T7 or SP6 kit, Ambion, Life Technologies Darmstadt, Germany). cRNA concentrations were determined by photometry (Nanodrop, Peqlab, Erlangen, Germany) and cRNA quality was checked by agarose gel electrophoresis. […]
(§3) TEVC measurements were performed using a TurboTec-10CD amplifier (npi Electronic, Tamm, Germany) and an ITC-16 AD/DA-interface (Instrutech Corporation, Port Washington, New York, USA). […] Tail currents were recorded at −120 mV. […]

T312S/KCNE1 = T312S/KCNE1 (Homo sapiens, UniProt P15382+P51787, T312S); assay: TEVC, mutant channel T312S/KCNE1 in oocytes; conditions: Kv7.1 T312S mutant with KCNE1
Description: as §1, §2, §3

I274A/KCNE1 = I274A/KCNE1 (Homo sapiens, UniProt P15382+P51787, I274A); assay: TEVC, mutant channel I274A/KCNE1 in oocytes; conditions: Kv7.1 I274A mutant with KCNE1
Description: as §1, §2, §3

Kv7.1/KCNE2–5 = assay: TEVC, Kv7.1 co-expressed with other KCNE isoforms; conditions: 1 μM
V241A/KCNE1 = V241A/KCNE1 (Homo sapiens, UniProt P15382+P51787, V241A); assay: TEVC, mutant channel V241A/KCNE1 in oocytes; conditions: Kv7.1 V241A mutant with KCNE1
Description: as §1, §2, §3

Kv1.5 = system: T1, Kv1.5; assay: TEVC, Kv1.5 channels; conditions: 1 μM
T1 construct: expressed in transfected cells

Kv7.1/KCNE1 = Kv7.1/KCNE1 (Homo sapiens, UniProt P15382+P51787); assay: Two electrode voltage clamp of Kv7.1/KCNE1 currents in Xenopus oocytes
Protocol: Template cDNAs (wildtype or mutant human Kv7.1 in pSGEM, wildtype human KCNE1 in pSP64) were linearized with a suitable restriction enzyme (Nhe I/pSGEM, Eco RI/pSP64). cRNA was synthesized from 1 μg linearized cDNA by in vitro transcription (mMessage mMachine T7 or SP6 kit, Ambion, Life Technologies Darmstadt, Germany). cRNA concentrations were determined by photometry (Nanodrop, Peqlab, Erlangen, Germany) and cRNA quality was checked by agarose gel electrophoresis.
Oocytes were commercially obtained from EcoCyte Bioscience (Castrop-Rauxel, Germany). Injection of stage 4 or 5 oocytes was performed using a nanoliter injector 2000 (WPI, Berlin, Germany). For standard pharmacological measurements, each oocyte was injected with 5 ng Kv7.1 cRNA alone or with 1 ng KCNE1 cRNA. To investigate the influence of KCNE1 on AC-1 sensitivity of Kv7.1 tetramers, 5 ng Kv7.1 cRNA was injected with different amounts of KCNE1 cRNA (0 ng, 0.005 ng, 0.05 ng, 0.5 ng and 5 ng). Injected oocytes were maintained in an incubator at 17 °C for 4–5 days in standard Barth solution (EcoCyte Bioscience, Castrop-Rauxel, Germany) supplemented with 90 μg ml^−1 theophylline, 63 μg ml^−1 penicillin, 40 μg ml^−1 streptomycin, and 100 μg ml^−1 gentamycin until used for two electrode voltage clamp (TEVC) measurements.
TEVC measurements were performed using a TurboTec-10CD amplifier (npi Electronic, Tamm, Germany) and an ITC-16 AD/DA-interface (Instrutech Corporation, Port Washington, New York, USA). Pulse and PulseFit software (HEKA, Lambrecht/Pfalz, Germany) was used for data acquisition and analysis. During TEVC recordings, oocytes were constantly perfused with control solution (ND96, containing in mM: 96 NaCl, 4 KCl, 1.8 CaCl2, 1 MgCl2, 5 mM HEPES, pH 7.6 supplemented 0.1–0.3% DMSO). AC solutions were freshly prepared in ND96 from a 10 mM DMSO stock solution. Glass capillaries were pulled to a fine point to produce current and voltage electrodes that were back-filled with 3 M KCl. When filled with this solution, electrode resistances ranged from 0.5–1.5 MΩ. Different voltage pulse protocols were used as follows: (1) To study the inhibitory effect of different AC derivatives, Kv7.1/KCNE1 currents were elicited by repetitive 7 s pulses to +40 mV applied every 30 s from a holding potential of −80 mV. (2) To analyse the voltage dependence of channel activation, currents were elicited by 10 s pulses to test voltages between −100 and +60 mV, applied in 20 mV increments from a holding potential of −80 mV. Tail currents were recorded at −120 mV. For control we always expressed KCNE1 alone along mutant channels and mutant currents were only taken into account when it reached at least 2.5- to 3-fold the size of the background Xenopus-Kv7.1/hKCNE1 currents.
Electrophysiological data were analysed using PulseFit software (HEKA, Lambrecht/Pfalz, Germany) and GraphPad Prism (GraphPad Software, Inc., La Jolla, California, USA). Channel inhibition was determined as reduction of whole cell current amplitude at the end of a 7 s test pulse to +40 mV. The concentration of compound that caused half-maximal inhibition (IC50) were determined using the Hill equation: Idrug/Imax=1/(1+[C/IC50]^H), where Idrug is the current amplitude in the presence of the drug, Imax is the current amplitude before drug application, C is the drug concentration and H is the Hill coefficient.

IC50 (A344C/KCNE1): 1000 ± 200 nM | IC50 (T312S/KCNE1): > 50000 nM | IC50 (I274A/KCNE1): 327 ± 83 nM | IC50 (V241A/KCNE1): 234 ± 15 nM | inhibition at 10 µM (Kv7.1/KCNE1; 10 µM, percent change in current amplitude at end of pulse to +40 mV): 89.2 ± 1.2% | Hill-coeff. (Kv7.1/KCNE1; concentration-response at +40 mV, oocytes): 1.2 ± 0.1 | maximum reduction of Kv7.1/KCNE1 channel currents (Kv7.1/KCNE1; even at concentrations ∼100-fold greater than the IC50): about 90% | higher voltages required to elicit measurable channel opening (depolarizing shift of activation) (Kv7.1/KCNE1; in the presence of AC-1 (300 nM)): 20–40 mV | slope m of linear fit of τinhibition against AC-1 concentration (Kv7.1/KCNE1; onset of inhibition, single exponential, y=m × log[AC−1]+b): −1.02±0.19 | IC50 (Kv7.1/KCNE1; wt, currents at end of 7 s pulse to +40 mV, holding −80 mV, oocytes, read-out: IC50 for inhibition of Kv7.1/KCNE1 channel currents): 78.4 nM
Compound: CC(C)(Oc1ccc(Cl)cc1)C(=O)NC1C2CC3CC1CC(NS(C)(=O)=O)(C3)C2 (stereo not drawn) [AC-1, 2-(4-chlorophenoxy)-2-methyl-N-[5-[(methylsulfonyl)amino]tricyclo[3.3.1.13,7]dec-2-yl]-propanamide]
sensitivity of Kv7.1/KCNE2-5 currents (Kv7.1/KCNE2–5): insensitive | effect on Kv1.5 (Kv1.5): does not affect | effect on channel activation kinetics (Kv7.1/KCNE1; 300 nM): strong deceleration of channel activation | effect on rate of current deactivation (Kv7.1/KCNE1; 300 nM, activated by 5 s pulse to +40 mV): does not alter the rate of current deactivation | effect on rate of current deactivation (Kv7.1/KCNE1; 300 nM, activated by 5 s pulse to −20 mV): decreases the rate of current deactivation
